Patent US4694069A, “Kibdelosporangium aridum SK&F-AAD-609” (SmithKline Beckman Corporation, priority 1985, dated 1987)
Converted amounts (≈) assume the structure as drawn. Like-named read-outs stand apart in the source and are kept apart here. Each block holds one molecule with its values, some of them ahead of it. Bridge positions count the residues as written; N and C are the ends. Square brackets hold non-standard residues; d marks the D form. Peptide text beside a SMILES is read from it. * marks the point of attachment. Ileψ(thiazoline)Cys = CC[C@H](C)[C@H](N)C1=N[C@H](C(=O)*)CS1; dOrn = NCCC[C@@H](N)C(=O)O

Columns and labels:
[1] = test system: S. epidermidis 651 (methicillin resistant strain); test: Mouse protection test; assay type: in vivo
Excerpt: (§1) in mouse protection tests^1
(§2) ^1 Mice dosed 1 and 5 H post infection s.c.; ED50, mg/kg.

S. faecalis 34358 [2] = test: Mouse protection test; assay type: in vivo
Excerpt: as §1, §2

S. aureus HH127 = test: Mouse protection test; assay type: in vivo
Excerpt: as §1, §2

[3] = test system: S. aureus 2620 (methicillin resistant strain); test: Mouse protection test; assay type: in vivo
Excerpt: as §1, §2

S. epidermidis 2479 [4] = test: Mouse protection test; assay type: in vivo
Excerpt: as §1, §2

[5] = test system: S. aureus 2620 (methicillin resistant strain); test: MIC; assay type: cell-based
Excerpt: (§3) In vitro minimum inhibitory concentrations (MIC) of the AAD-609 complex and of Factors A, B, CC2 and D, using standard microtiter assay procedures, against a number of microorganisms are reported in Table A, which follows.

[6] = comparators, source not given; cited from earlier work
S. faecalis 34358 [7] = test: In vitro MIC, standard microtiter assay; assay type: cell-based, Streptococcus faecalis
Excerpt: as §3

S. aureus 674 = test: In vitro MIC, standard microtiter assay; assay type: cell-based, Staphylococcus aureus
Excerpt: as §3

S. aureus 209P = test: In vitro MIC, standard microtiter assay; assay type: cell-based, Staphylococcus aureus
Excerpt: as §3

S. aureus 675 = test: In vitro MIC, standard microtiter assay; assay type: cell-based, Staphylococcus aureus
Excerpt: as §3

[8] = test system: S. aureus 910 (methicillin resistant strain); test: In vitro MIC, standard microtiter assay; assay type: cell-based, Staphylococcus aureus
Excerpt: as §3

[9] = test system: S. epidermidis 651 (methicillin resistant strain); test: In vitro MIC, standard microtiter assay; assay type: cell-based
Excerpt: as §3

Clostridium difficile = test: In vitro MIC, standard microtiter assay; assay type: cell-based
Excerpt: as §3

Escherichia coli 12140 = test: In vitro MIC, standard microtiter assay; assay type: cell-based
Excerpt: as §3

S. epidermidis 2683 = test: In vitro MIC, standard microtiter assay; assay type: cell-based
Excerpt: as §3

[10] = test system: Staphylococcus aureus HH127; test: In vitro MIC, standard microtiter assay; assay type: cell-based
Excerpt: as §3

[11] = test system: Salmonella gallinarum BC-595; test: In vitro MIC, standard microtiter assay; assay type: cell-based
Excerpt: as §3

[12] = test system: Streptococcus faecalis 657; test: In vitro MIC, standard microtiter assay; assay type: cell-based
Excerpt: as §3

S. epidermidis 2265 = test: In vitro MIC, standard microtiter assay; assay type: cell-based
Excerpt: as §3

S. epidermidis 2479 [13] = test: In vitro MIC, standard microtiter assay; assay type: cell-based
Excerpt: as §3

SK&F-AAD-609 = test: Susceptibility of SK&F-AAD-609 to antibiotics (diffusion method, BBL susceptibility disks); assay type: cell-based, Kibdelosporangium aridum subsp. largum; settings: disk 30 μg; 28° C., one week
Experimental: Susceptibility of SK&F-AAD-609 to antibiotics was examined by placing BBL susceptibility disks on nutrient agar plates seeded with SK&F-ADD-609 as an agar overlay. Plates were placed at 4° C. for one hour to permit diffusion of the anitbiotics and, subsequently, incubated at 28° C. Diameters of the zones of inhibition were measured after incubation for one week.
Susceptibility to Antibiotics. […] Chlortetracycline (5 μg) produced 17-18 mm zones of inhibition; tetracycline (5 μg) 9-12 mm zones; rifampin (5 μg) 10-12 mm zones; novobiocin (5 μg) 30-35 mm zones. All zones of inhibition contained at least a few resistant colonies.

[14] = mouse, in vivo
[15] = 30:70 acetonitrile:water
[16] = pKa by potentiometric titration; settings: 30:70 acetonitrile:water, apparent values
pigs = settings: pig, in vivo; cited from earlier work
[17] = Table B, methicillin resistant strain
[18] = mice dosed 1 and 5 h post infection s.c., methicillin resistant strain
[19] = mice dosed 1 and 5 h post infection s.c.
[20] = AAD-216A averaged previous results
[21] = Table A, methicillin resistant strain

SMILES: CN[C@H](CC(C)C)C(=O)N[C@H]1C(=O)N[C@@H](CC(N)=O)C(=O)N[C@H]2C(=O)N[C@H]3C(=O)N[C@H](C(=O)N[C@H](C(=O)O)c4cc(O)cc(O)c4-c4cc3ccc4O)[C@H](O)c3ccc(c(Cl)c3)Oc3cc2cc(c3O[C@@H]2O[C@H](CO)[C@@H](O)[C@H](O)[C@H]2O[C@H]2C[C@](C)(N)[C@H](O)[C@H](C)O2)Oc2ccc(cc2Cl)[C@H]1O [Vancomycin, vancomycin]
Elimination half-life (Pharmacokinetics in mice; mice): 0.333 h
Cmax (Pharmacokinetics in mice; mouse, serum): 30000 ng/mL
ED50 ([1]; Staphylococcus epidermidis, sc): 4.8 mg/kg
ED50 (S. faecalis 34358 [2]; Enterococcus faecalis, 34358, sc): 12.5 mg/kg
ED50 (S. aureus HH127; Staphylococcus aureus, HH127, sc): 1.4 mg/kg
ED50 ([3]; Staphylococcus aureus, sc): 6.7 mg/kg
ED50 (S. epidermidis 2479 [4]; Staphylococcus epidermidis, 2479, sc): 4.1 mg/kg
MIC ([5]; Staphylococcus aureus): 2 µg/mL (≈ 1.38 µM)
Isoelectric point [6]: 8.2
MIC (S. faecalis 34358 [7]; Enterococcus faecalis, 34358): 3.1 µg/mL (≈ 2.14 µM)
MIC (S. faecalis 34358 [7]; Table B): 3.1 µg/mL (≈ 2.14 µM)
MIC (S. aureus 674; Staphylococcus aureus, 674): 1.6 µg/mL (≈ 1.1 µM)
MIC (S. aureus 209P; Staphylococcus aureus, 209P): 0.8 µg/mL (≈ 0.552 µM)
MIC (S. aureus 675; Staphylococcus aureus, 675): 3.1 µg/mL (≈ 2.14 µM)
MIC ([8]; Staphylococcus aureus): 1.6 µg/mL (≈ 1.1 µM)
MIC ([9]; Staphylococcus epidermidis): 3.1 µg/mL (≈ 2.14 µM)
MIC [9, 17]: 3.1 µg/mL (≈ 2.14 µM)
MIC (Clostridium difficile; Clostridioides difficile): 2 µg/mL (≈ 1.38 µM)
MIC (Escherichia coli 12140; Escherichia coli, 12140): > 100 µg/mL
MIC (S. epidermidis 2683; Staphylococcus epidermidis, 2683): 3.1 µg/mL (≈ 2.14 µM)
MIC ([10]; Staphylococcus aureus, HH127): 1.6 µg/mL (≈ 1.1 µM)
MIC ([10]; Table B): 1.6 µg/mL (≈ 1.1 µM)
MIC ([11]; Salmonella enterica, GALLINARUM): 100 µg/mL (≈ 69 µM)
MIC ([12]; Enterococcus faecalis, 657): 3.1 µg/mL (≈ 2.14 µM)
MIC (S. epidermidis 2265; Staphylococcus epidermidis, 2265): 1.6 µg/mL (≈ 1.1 µM)
MIC (S. epidermidis 2479 [13]; Staphylococcus epidermidis, 2479): 3.1 µg/mL (≈ 2.14 µM)
MIC (S. epidermidis 2479 [13]; Table B): 3.1 µg/mL (≈ 2.14 µM)
Susceptibility (diffusion method) (SK&F-AAD-609): resistant

MIC ([5]; Staphylococcus aureus, Table B, methicillin resistant strain, read-out: MIC): 2 µg/mL (≈ 1.13 µM)
MIC (S. faecalis 34358 [7]; Enterococcus faecalis, 34358, Table A, read-out: MIC): 0.4 µg/mL (≈ 0.225 µM)
MIC (S. faecalis 34358 [7]; Table B): 0.4 µg/mL (≈ 0.225 µM)
Elimination half-life [14]: 1.93 h
Maximum serum concentration [14]: 90 µg/mL
MIC (S. aureus 674; Staphylococcus aureus, 674, Table A, read-out: MIC): 0.8 µg/mL (≈ 0.451 µM)
MIC (S. aureus 209P; Staphylococcus aureus, 209P, Table A, read-out: MIC): 0.4 µg/mL (≈ 0.225 µM)
MIC (S. aureus 675; Staphylococcus aureus, 675, Table A, read-out: MIC): 6.3 µg/mL (≈ 3.55 µM)
MIC ([8]; Staphylococcus aureus, Table A, methicillin resistant strain, read-out: MIC): 1.6 µg/mL (≈ 0.901 µM)
MIC ([9]; Staphylococcus epidermidis, Table A, methicillin resistant strain, read-out: MIC): 50 µg/mL (≈ 28.2 µM)
MIC [9, 17]: 50 µg/mL (≈ 28.2 µM)
MIC (Clostridium difficile; Clostridioides difficile, Table A, read-out: MIC): 0.5 µg/mL (≈ 0.282 µM)
MIC (Escherichia coli 12140; Escherichia coli, 12140, Table A, read-out: MIC): > 100 µg/mL
MIC (S. epidermidis 2683; Staphylococcus epidermidis, 2683, Table A, read-out: MIC): 24 µg/mL (≈ 13.5 µM)
MIC ([10]; Staphylococcus aureus, HH127, Table A, read-out: MIC): 1.6 µg/mL (≈ 0.901 µM)
MIC ([10]; Table B): 1.6 µg/mL (≈ 0.901 µM)
MIC ([11]; Salmonella enterica, GALLINARUM, Table A, read-out: MIC): > 100 µg/mL
MIC ([12]; Enterococcus faecalis, 657, Table A, read-out: MIC): 0.4 µg/mL (≈ 0.225 µM)
MIC (S. epidermidis 2265; Staphylococcus epidermidis, 2265, Table A, read-out: MIC): 25 µg/mL (≈ 14.1 µM)
MIC (S. epidermidis 2479 [13]; Staphylococcus epidermidis, 2479, Table A, read-out: MIC): 12.5 µg/mL (≈ 7.04 µM)
MIC (S. epidermidis 2479 [13]; Table B): 12.5 µg/mL (≈ 7.04 µM)
pKa (A) carboxyl on aglycone [15]: 3.4
pKa (C) amino group on aglycone [15]: 7.1
SMILES: CCCCCCCCCC(=O)NC1C(Oc2c3cc4cc2Oc2c(Cl)cc(cc2Cl)C(O)C2NC(=O)C(NC(=O)C4NC(=O)C4NC(=O)C(NC(=O)C(NC)c5ccc(O)c(c5)Oc5cc(O)c(Cl)c4c5)C(O)c4ccc(c(Cl)c4)O3)c3ccc(O)c(c3)-c3c(OC4OC(CO)C(O)C(O)C4O)cc(O)cc3C(C(=O)O)NC2=O)OC(CO)C(O)C1O (stereo not shown) [AAD-609 A]

SMILES: CNC1C(=O)NC2C(=O)NC(C(=O)NC3C(=O)NC4C(=O)NC(C(=O)NC(C(=O)O)c5cc(O)cc(OC6OC(CO)C(O)C(O)C6O)c5-c5cc4ccc5O)C(O)c4cc(Cl)c(c(Cl)c4)Oc4cc3cc(c4OC3OC(CO)C(O)C(O)C3NC(=O)CCCCCCCCC(C)C)Oc3ccc(cc3Cl)C2O)c2cc(cc(O)c2Cl)Oc2cc1ccc2O (stereo not shown) [AAD-609 C]
ED50 [1, 18]: 50 mg/kg
ED50 (S. faecalis 34358 [2]; [19]): 50 mg/kg
ED50 (S. aureus HH127; [19]): 8.5 mg/kg
ED50 [3, 18]: 8.4 mg/kg
ED50 (S. epidermidis 2479 [4]; [19]): 22 mg/kg
MIC [5, 17]: 4 µg/mL (≈ 2.22 µM)
MIC (S. faecalis 34358 [7]; Table A): 0.2 µg/mL (≈ 0.111 µM)
MIC (S. faecalis 34358 [7]; Table B): 0.2 µg/mL (≈ 0.111 µM)
pKa (A) carboxyl on aglycone [16, 20]: 3.6
pKa (C) amino group on aglycone [16, 20]: 7.2
pKa (D) phenolic OH ([16]; first phenolic OH, AAD-216A averaged previous results): 8.4
pKa (D) phenolic OH ([16]; fourth phenolic OH): 11.6
pKa (D) phenolic OH ([16]; second phenolic OH, AAD-216A averaged previous results): 9.9
pKa (D) phenolic OH ([16]; third phenolic OH, AAD-216A averaged previous results): 10.6
MIC (S. aureus 674; Table A): 1.6 µg/mL (≈ 0.887 µM)
MIC (S. aureus 209P; Table A): 0.8 µg/mL (≈ 0.444 µM)
MIC (S. aureus 675; Table A): 6.3 µg/mL (≈ 3.49 µM)
MIC [8, 21]: 1.6 µg/mL (≈ 0.887 µM)
MIC [9, 21]: 25 µg/mL (≈ 13.9 µM)
MIC [9, 17]: 25 µg/mL (≈ 13.9 µM)
MIC (Clostridium difficile; Table A): 1 µg/mL (≈ 0.554 µM)
MIC (Escherichia coli 12140; Table A): > 100 µg/mL
MIC (S. epidermidis 2683; Table A): 25 µg/mL (≈ 13.9 µM)
MIC ([10]; Table A): 1.6 µg/mL (≈ 0.887 µM)
MIC ([10]; Table B): 1.6 µg/mL (≈ 0.887 µM)
MIC ([11]; Table A): > 100 µg/mL
MIC ([12]; Table A): 0.2 µg/mL (≈ 0.111 µM)
MIC (S. epidermidis 2265; Table A): 25 µg/mL (≈ 13.9 µM)
MIC (S. epidermidis 2479 [13]; Table A): 12.5 µg/mL (≈ 6.93 µM)
MIC (S. epidermidis 2479 [13]; Table B): 12.5 µg/mL (≈ 6.93 µM)

SMILES: CC[C@H](C)[C@H](N)C1=N[C@H](C(=O)N[C@@H](CC(C)C)C(=O)N[C@H](CCC(=O)O)C(=O)N[C@H](C(=O)N[C@H]2CCCCNC(=O)[C@H](CC(N)=O)NC(=O)[C@@H](CC(=O)O)NC(=O)[C@H](Cc3cnc[nH]3)NC(=O)[C@@H](Cc3ccccc3)NC(=O)[C@H]([C@@H](C)CC)NC(=O)[C@@H](CCCN)NC2=O)[C@@H](C)CC)CS1 [Bacitracin, bacitracin] ({Ileψ(thiazoline)Cys}-L[dE]IK[dOrn]I[dF]H[dD]N; lactam 4-C)
Growth promotion in pigs (in words) (pigs): known growth promoter in pigs
